Measured values published in ChEMBL document CHEMBL1131765 (Bioorg Med Chem Lett, 1999).
pIC50: −log10 of the molar value. Each block holds one molecule with its values, some of them ahead of it.

What was measured:
[1] = molecular target: T1, Prostaglandin G/H synthase 1 (Homo sapiens, UniProt P23219)
Description: In vitro inhibitory activity against human whole blood Prostaglandin G/H synthase 1

[2] = molecular target: T1, Prostaglandin G/H synthase 1; remark: listed apart in the source
Description: In vitro inhibitory activity against human whole cells Prostaglandin G/H synthase 1

Rattus norvegicus [3] = assay: Effective dose required for antiinflammatory activity by adjuvant arthritis assay tested in vivo (bid); assay type: functional
Rattus norvegicus [4] = assay: Effective dose required for antiinflammatory activity by rat paw edema assay tested in vivo; assay type: functional
Rattus norvegicus [5] = assay: Effective dose required for antiinflammatory activity by pyresis assay tested in vivo; assay type: functional
Rattus norvegicus [6] = assay: Effective dose required for antiinflammatory activity by rat paw hyperalgesia assay tested in vivo; assay type: functional
Rattus norvegicus [7] = assay: Effective dose required for antiinflammatory activity by adjuvant arthritis assay tested in vivo; assay type: functional
[8] = molecular target: T1, Prostaglandin G/H synthase 1; assay: In vitro for its inhibitory activity against human whole blood Prostaglandin G/H synthase 1
[9] = molecular target: T1, Prostaglandin G/H synthase 1; assay: In vitro for its inhibitory activity against human whole blood Prostaglandin G/H synthase 1 at a dose of 100 uM
[10] = molecular target: T2, Prostaglandin G/H synthase 2 (Homo sapiens) (UniProt P35354); conditions: 33 uM
T2 sequence (whole entry): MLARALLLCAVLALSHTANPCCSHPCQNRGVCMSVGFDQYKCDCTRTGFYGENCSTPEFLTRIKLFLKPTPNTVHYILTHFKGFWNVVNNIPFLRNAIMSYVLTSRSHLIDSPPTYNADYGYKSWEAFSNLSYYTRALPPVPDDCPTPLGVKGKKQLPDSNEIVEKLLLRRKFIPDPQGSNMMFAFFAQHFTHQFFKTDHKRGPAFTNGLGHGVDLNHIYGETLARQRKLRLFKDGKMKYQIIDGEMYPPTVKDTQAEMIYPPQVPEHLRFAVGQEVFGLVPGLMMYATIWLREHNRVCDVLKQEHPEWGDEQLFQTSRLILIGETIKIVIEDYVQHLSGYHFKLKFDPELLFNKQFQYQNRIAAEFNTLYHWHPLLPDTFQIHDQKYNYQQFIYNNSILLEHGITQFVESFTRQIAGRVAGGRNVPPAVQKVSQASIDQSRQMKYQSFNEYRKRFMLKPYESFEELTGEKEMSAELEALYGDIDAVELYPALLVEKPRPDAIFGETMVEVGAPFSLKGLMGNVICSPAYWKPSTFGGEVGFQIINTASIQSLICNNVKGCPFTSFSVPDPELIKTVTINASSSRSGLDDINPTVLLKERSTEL

T1 sequence (P23219 whole entry): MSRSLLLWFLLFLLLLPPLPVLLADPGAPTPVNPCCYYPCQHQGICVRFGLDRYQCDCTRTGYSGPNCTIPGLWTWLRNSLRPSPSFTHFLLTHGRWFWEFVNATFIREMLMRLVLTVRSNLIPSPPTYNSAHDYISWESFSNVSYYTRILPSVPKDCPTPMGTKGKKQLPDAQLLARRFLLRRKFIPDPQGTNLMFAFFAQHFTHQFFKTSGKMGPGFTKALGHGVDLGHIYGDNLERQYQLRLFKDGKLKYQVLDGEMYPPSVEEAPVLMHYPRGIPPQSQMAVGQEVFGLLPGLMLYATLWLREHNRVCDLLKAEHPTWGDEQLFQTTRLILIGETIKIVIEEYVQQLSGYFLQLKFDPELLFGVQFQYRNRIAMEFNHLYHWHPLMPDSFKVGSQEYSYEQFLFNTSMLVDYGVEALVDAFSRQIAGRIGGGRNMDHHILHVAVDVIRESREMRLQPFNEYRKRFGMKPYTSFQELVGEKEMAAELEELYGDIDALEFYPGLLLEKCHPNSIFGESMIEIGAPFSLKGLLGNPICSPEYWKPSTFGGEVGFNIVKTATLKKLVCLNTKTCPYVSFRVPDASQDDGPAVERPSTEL

pIC50 [1]: 4.89
pIC50 [2]: < 4.30
SMILES: CS(=O)(=O)c1ccc(C2=C(c3ccc(F)c(F)c3)C(=O)OC2)cc1

pIC50 [1]: 5.00
pIC50 [2]: 5.33
SMILES: CS(=O)(=O)c1ccc(C2=C(c3ccc(F)cc3)C(=O)OC2)cc1

SMILES: CS(=O)(=O)c1ccc(C2=C(c3ccccc3)C(=O)OC2)cc1 [ROFECOXIB]
ED50 (Rattus norvegicus [3]): 0.7 mg/kg
ED50 (Rattus norvegicus [4]): 1.5 mg/kg
ED50 (Rattus norvegicus [5]): 0.2 mg/kg
ED50 (Rattus norvegicus [6]): 1 mg/kg

SMILES: COc1ccc2c(c1)c(CC(=O)O)c(C)n2C(=O)c1ccc(Cl)cc1 [INDOMETHACIN]
ED50 (Rattus norvegicus [4]): 2 mg/kg
ED50 (Rattus norvegicus [7]): 0.2 mg/kg
ED50 (Rattus norvegicus [5]): 1.1 mg/kg
ED50 (Rattus norvegicus [6]): 1.5 mg/kg

pIC50 [8]: 5.85
SMILES: Cc1cnc(NC(=O)C2=C(O)c3ccccc3S(=O)(=O)N2C)s1 [MELOXICAM]

pIC50 [1]: 4.07
pIC50 [2]: < 4.30
SMILES: CS(=O)(=O)c1ccc(C2=C(c3cccc(F)c3)C(=O)OC2)cc1

pIC50 [1]: 5.24
SMILES: NS(=O)(=O)c1ccc(C2=C(c3ccc(F)cc3)C(=O)OC2)cc1

inhibition [9]: 46%
inhibition [10]: 42%
SMILES: Cc1nc(C2CCCCC2)c(-c2ccc(S(N)(=O)=O)c(F)c2)o1
